Measured values: ChEMBL document CHEMBL3853283, “Nitric Oxide Inhibitory Meroterpenoids from the Fungus Penicillium purpurogenum MHZ 111” (J Nat Prod, 2016)
Each block holds one compound with its values, some of them ahead of it.

Experiments:
[1] = Antineuroinflammatory activity in […] of LPS-induced nitric oxide production preincubated for 10 mins followed by LPS stimulation for 24 hrs by Griess assay; format: functional, cell-based; details: BV-2
[2] = tested on: BV-2 microglial cells (Mus musculus); assay: Antineuroinflammatory activity in mouse BV2 cells assessed as inhibition of LPS-induced nitric oxide production at 50 uM preincubated for 10 mins followed by LPS stimulation for 24 hrs by Griess assay
[3] = Cytotoxicity against […] cells assessed as decrease in cell viability up to 100 uM preincubated for 10 mins followed by LPS stimulation for 24 hrs by MTT assay; format: toxicity, cell-based; details: bv-2, 24 h

IC50 [1]: 34.5 µM
SMILES: COc1ccc2c(c1)c(CC(=O)O)c(C)n2C(=O)c1ccc(Cl)cc1 [INDOMETHACIN]

SMILES: C[C@H]1O[C@@H]2OC(=O)[C@]3(C)CC4=C(CO)C5=C(CC(=O)[C@]4(C)[C@H](C1=O)[C@H]23)C(C)(C)OC(=O)C5
inhibition at 50 µM [2]: < 50%

SMILES: COC(=O)[C@]12C(=O)[C@@](C)(O)C(=O)[C@](C)(C[C@H]3C(C)=C4CC(=O)OC(C)(C)C4=CC[C@@]31C)[C@]21CO1
inhibition at 50 µM [2]: < 50%

SMILES: CC(=O)O[C@@H]1c2c3c(cc(O)c2C(=O)OC1C)O[C@@]1(C)[C@@H](O)C[C@H]2C(C)(C)C(=O)C=C[C@]2(C)[C@@H]1C3 (stereo partly drawn)
inhibition at 50 µM [2]: < 50%

SMILES: CC1=C2CC(=O)OC(C)(C)C2=CC[C@@]2(C)[C@H]1C[C@@]1(C)C(=O)[C@@]3(C)O[C@]14COC(=O)[C@@]42C3=O
inhibition at 50 µM [2]: < 50%

SMILES: C[C@@H]1O[C@@H]2OC(=O)[C@]3(C)C[C@@H]4[C@](C)(C(=O)C=C5C(=CC(=O)OC5(C)C)[C@@]45CO5)[C@H](C1=O)[C@H]23 [BERKELEYACETAL C]
Activity [3]: Non-Toxic
IC50 [1]: 0.8 µM

SMILES: CC1Cc2c3c(cc(O)c2C(=O)O1)O[C@@]1(C)[C@@H](O)C[C@H]2C(C)(C)C(=O)C=C[C@]2(C)[C@@H]1C3 (stereo partly drawn)
inhibition at 50 µM [2]: < 50%
